Measured values taken from patent publication US7928098B2, “Therapeutic and/or preventive agents for a sleep disorder” (Kyowa Hakko Kirin Co., Ltd., priority 2005, dated 2011).

Tested on: ddY male mice
Assay: Effect on pentobarbital sodium-induced sleeping time (loss of righting reflex)
Type: in vivo
Conditions: Table 5-1, groups of seven, test compound 10 mg/kg p.o. one hour before pentobarbital-Na 25 mg/kg s.c., controls 52.12 ± 5.20 (r5) and 35.56 ± 5.21 (r11)
Description: The test was conducted to examine influence of Compound (I) of the present invention on pentobarbital sodium-induced sleeping time, according to the method of Iyakuhin no Kaihatsu, Vol. 9, Iyakuhin no Tansaku I, “antihypnotic”, p. 220-226, Hirokawa Shoten.
For the test, ddY male mice (19-21 g body weight; Japan SLC, Inc.) were used. All test compounds were used by suspending in distilled water (Otsuka Pharmaceutical Factory, Inc.) containing 0.5 volume/weight % methylcellulose (0.5% MC: Wako Pure Chemical Industries, Ltd.). A volume of 0.1 mL was administered per 10 g body weight of mice.
Groups of seven mice were used. To the control groups were orally administrated 0.5% MC, whereas a suspension of the test compound was orally administered to the test compound administered groups. One hour after the administration, pentobarbital sodium (pentobarbital-Na: Tokyo Chemical Industry Co., Ltd., 25 mg/kg) was administered subcutaneously. Mouse placed in a recumbent position, the mouse immediately returns to a proper upright position (this is known as righting reflex). However, the administration of pentobarbital sodium eliminated the righting reflex in the control groups. The time period in which the administration of […] eliminated the righting reflex was regarded as a sleeping time. By a measurement of time disappearing righting reflex immediately after the administration, the sleeping time was determined.
For O=C(Nc1nc(-c2ccco2)c(-c2ccncc2)s1)c1ccc(Cn2ccnc2)cc1 [Compound 11, N-[4-(2-Furyl)-5-(4-pyridyl)thiazol-2-yl]-4-(imidazole-1-ylmethyl)benzamide], the “Sleeping time (min) Mean value ± standard deviation” value was 22.75 ± 6.63 min.
With O=C(Nc1nc(-c2ccco2)c(-c2ccncc2)s1)c1cccnc1 [Compound 5, N-[4-(2-Furyl)-5-(4-pyridyl)thiazol-2-yl]pyridine-3-carboxamide] the “Sleeping time (min) Mean value ± standard deviation” value was 0.82 ± 0.82 min.
With O=C(Nc1nc(-c2ccco2)c(-c2ccncc2)s1)c1ccncc1 [Compound 1, N-[4-(2-Furyl)-5-(4-pyridyl)thiazol-2-yl]pyridine-4-carboxamide] the “Sleeping time (min) Mean value ± standard deviation” value was 15.58 ± 8.50 min.

Same assay, conditions: Table 5-2, groups of seven, test compound 10 mg/kg p.o. one hour before pentobarbital-Na 25 mg/kg s.c., controls 40.00 ± 5.32 (r5) and 45.87 ± 4.17 (r12)
With O=C(Nc1nc(-c2ccco2)c(C(=O)c2ccc(F)cc2)s1)c1ccncc1 [Compound 78, N-[5-(4-Fluorobenzoyl)-4-(2-furyl)thiazol-2-yl]pyridine-4-carboxamide] the “Sleeping time (min) Mean value ± standard deviation” value was 8.66 ± 4.67 min.

Tested on: not given
Assay: not given
Conditions: not given
For Cc1cnc(C(=O)c2sc(NC(=O)c3ccncc3)nc2-c2ccco2)s1 [Compound 256, N-[4-(2-Furyl)-5-(5-methylthiazol-2-ylcarbonyl)thiazol-2-yl]pyridine-4-carboxamide], the melting point was 275 to 277 °C (dec.).
Work on COc1ccc(C(=O)Nc2nc(-c3ccco3)c(C(=O)C3CCOCC3)s2)c(OC)c1 [Compound 389, N-[4-(2-Furyl)-5-(tetrahydropyran-4-ylcarbonyl)thiazol-2-yl]-2,4-dimethoxybenzamide] yielded a melting point of 219 to 222 °C.
For COc1cccc(C(=O)c2sc(NC(=O)c3ccncc3)nc2-c2ccco2)n1 [Compound 191, N-[4-(2-Furyl)-5-(6-methoxypyridin-2-ylcarbonyl)thiazol-2-yl]pyridine-4-carboxamide], the melting point was 247 to 250 °C.
Compound CCCC(=O)c1sc(NC(=O)c2ccco2)nc1-c1ccco1 [Compound 293, N-[5-Butyryl-4-(2-furyl)thiazol-2-yl]furan-2-carboxamide] has a melting point of 172 to 176 °C.
O=C(Nc1nc(-c2ccco2)c(C(=O)c2ccccn2)s1)c1ccncc1Cl [Compound 123, 3-Chloro-N-[4-(2-furyl)-5-(pyridin-2-ylcarbonyl)thiazol-2-yl]pyridine-4-carboxamide] gave a melting point of 206 to 207 °C.
N#Cc1ccc(C(=O)Nc2nc(-c3ccco3)c(C(=O)C3CCC3)s2)cc1 [Compound 332, 4-Cyano-N-[5-(cyclobutylcarbonyl)-4-(2-furyl)thiazol-2-yl]benzamide] showed a melting point of 220 to 225 °C.
Compound O=C(Nc1nc(-c2ccco2)c(C(=O)C2CCC2)s1)c1ccco1 [Compound 331, N-[5-(Cyclobutylcarbonyl)-4-(2-furyl)thiazol-2-yl]furan-2-carboxamide] has a melting point of 188 to 192 °C.
For O=C(CN1CCOCC1)Nc1nc(-c2ccco2)c(C(=O)c2ccccn2)s1 [Compound 172, N-[4-(2-Furyl)-5-(pyridin-2-ylcarbonyl)thiazol-2-yl]morpholinoacetamide], the melting point was 170 to 171 °C.
Work on O=C(Nc1nc(-c2ccco2)c(C(=O)C2CCOCC2)s1)c1cccc(Cl)c1 [Compound 375, 3-Chloro-N-[4-(2-furyl)-5-(tetrahydropyran-4-ylcarbonyl)-thiazol-2-yl]benzamide] yielded a melting point of 210 to 212 °C.
With O=C(CN1CCCC1)Nc1nc(-c2ccco2)c(C(=O)C2CCOCC2)s1 [Compound 441, N-[4-(2-Furyl)-5-(tetrahydropyran-4-ylcarbonyl)thiazol-2-yl]-2-(1-pyrrolidinyl)acetamide] the melting point was 115 to 117 °C.
With Cc1cccc(C(=O)c2sc(NC(=O)c3ccncc3)nc2-c2ccco2)n1 [Compound 192, N-[4-(2-Furyl)-5-(6-methylpyridin-2-ylcarbonyl)thiazol-2-yl]pyridine-4-carboxamide] the melting point was 238 to 241 °C.
Compound O=C(Nc1nc(-c2ccco2)c(C(=O)C(F)(F)F)s1)c1ccncc1 [Compound 287, N-[4-(2-Furyl)-5-(trifluoroacetyl)thiazol-2-yl]pyridine-4-carboxamide] has a melting point of 268 to 270 °C.
In the case of CCOCC(=O)Nc1nc(-c2ccco2)c(C(=O)C2CCOCC2)s1 [Compound 437, 2-Ethoxy-N-[4-(2-furyl)-5-(tetrahydropyran-4-ylcarbonyl)-thiazol-2-yl]acetamide], the melting point is reported as 121 to 126 °C.
For CC1(C(=O)Nc2nc(-c3ccco3)c(C(=O)c3ccccn3)s2)CC1 [Compound 100, N-[4-(2-Furyl)-5-(pyridin-2-ylcarbonyl)thiazol-2-yl]-1-methylcyclopropanecarboxamide], the melting point was 195 to 196 °C.
O=C(Nc1nc(-c2ccco2)c(C(=O)c2ccccn2)s1)c1ccnc(N2CCOCC2)c1 [Compound 127, N-[4-(2-Furyl)-5-(pyridin-2-ylcarbonyl)thiazol-2-yl]-2-morpholinopyridine-4-carboxamide] gave a melting point of 216 to 217 °C.
With COc1cc(OC)cc(C(=O)Nc2nc(-c3ccco3)c(C(=O)C3CCOCC3)s2)c1 [Compound 393, N-[4-(2-Furyl)-5-(tetrahydropyran-4-ylcarbonyl)thiazol-2-yl]-3,5-dimethoxybenzamide] the melting point was 278 to 280 °C.
Compound O=C(CN1CCC(N2CCCCC2)CC1)Nc1nc(-c2ccco2)c(C(=O)C2CCOCC2)s1 [Compound 457, N-[4-(2-Furyl)-5-(tetrahydropyran-4-ylcarbonyl)thiazol-2-yl]-2-(4-piperidinopiperidino)acetamide] has a melting point of 177 to 179 °C.
For Cc1cncc(C(=O)Nc2nc(-c3ccco3)c(C(=O)c3ccccn3)s2)c1 [Compound 131, N-[4-(2-Furyl)-5-(pyridin-2-ylcarbonyl)thiazol-2-yl]-5-methylpyridine-3-carboxamide], the melting point was 245 to 248 °C.
Work on O=C(Nc1nc(-c2ccco2)c(C(=O)C2CCOCC2)s1)c1cccc2c1OC(F)(F)O2 [Compound 402, 2,2-Difluoro-N-[4-(2-furyl)-5-(tetrahydropyran-4-ylcarbonyl)thiazol-2-yl]-1,3-benzodioxol-4-carboxamide] yielded a melting point of 206 to 207 °C.
In the case of O=C(Nc1nc(-c2ccco2)c(C(=O)C2CCCCC2)s1)c1ccncc1 [Compound 344, N-[5-(Cyclohexylcarbonyl)-4-(2-furyl)thiazol-2-yl]pyridine-4-carboxamide], the melting point is reported as 197 to 199 °C.
Compound CC(O)c1cc2cc(C(=O)Nc3nc(-c4ccco4)c(C(=O)c4ccccn4)s3)ccc2o1 (centres unmarked) [Compound 154, N-[4-(2-Furyl)-5-(pyridin-2-ylcarbonyl)thiazol-2-yl]-2-(1-hydroxyethyl)-1-benzofuran-5-carboxamide] has a melting point of 246 to 249 °C.
Work on O=C(Nc1nc(-c2ccco2)c(C(=O)C2CCOCC2)s1)c1ccsc1 [Compound 423, N-[4-(2-Furyl)-5-(tetrahydropyran-4-ylcarbonyl)thiazol-2-yl]thiophene-3-carboxamide] yielded a melting point of 227 to 229 °C.
In the case of CC(C)(C)C(=O)Nc1nc(-c2ccco2)c(C(=O)c2ccccn2)s1 [Compound 98, N-[4-(2-Furyl)-5-(pyridin-2-ylcarbonyl)thiazol-2-yl]-2,2-dimethylpropanamide], the melting point is reported as 186 to 187 °C.
O=C(Nc1nc(-c2ccco2)c(C(=O)c2cccnc2)s1)c1ccco1 [Compound 214, N-[4-(2-Furyl)-5-(pyridin-3-ylcarbonyl)thiazol-2-yl]furan-2-carboxamide] showed a melting point of 234 to 236 °C.
In the case of O=C(Nc1nc(-c2ccco2)c(C(=O)c2ccccn2)s1)c1cc[nH]c(=O)c1 [Compound 139, N-[4-(2-Furyl)-5-(pyridin-2-ylcarbonyl)thiazol-2-yl]-2-oxo-1,2-dihydropyridine-4-carboxamide], the melting point is reported as 170 to 180 °C (dec.).
In the case of CC(C)C(=O)c1sc(N)nc1-c1ccco1 [Compound 299, 2-Amino-4-(2-furyl)thiazol-5-yl isopropyl ketone], the melting point is reported as 195 to 199 °C.
In the case of O=C(c1cccnc1)c1sc(NC(=O)C2CC2)nc1-c1ccco1 [Compound 212, N-[4-(2-Furyl)-5-(pyridin-3-ylcarbonyl)thiazol-2-yl]cyclopropanecarboxamide], the melting point is reported as 231 to 233 °C.
Cc1cc(C(=O)Nc2nc(-c3ccco3)c(C(=O)C3CCOCC3)s2)ccn1 [Compound 405, N-[4-(2-Furyl)-5-(tetrahydropyran-4-ylcarbonyl)thiazol-2-yl]-2-methylpyridine-4-carboxamide] gave a melting point of 169 to 173 °C.
For CC(C)(O)C(=O)Nc1nc(-c2ccco2)c(C(=O)c2ccccc2)s1 [Compound 45, N-[5-Benzoyl-4-(2-furyl)thiazol-2-yl]-2-hydroxy-2-methylpropanamide], the melting point was 153 to 154 °C.
In the case of O=C(c1ccccn1)c1sc(NC(=O)C2CCC2)nc1-c1ccco1 [Compound 101, N-[4-(2-Furyl)-5-(pyridin-2-ylcarbonyl)thiazol-2-yl]cyclobutanecarboxamide], the melting point is reported as 165 to 170 °C.
For O=C(c1ccccn1)c1sc(NC(=O)C2COc3ccccc3O2)nc1-c1ccco1 (centres unmarked) [Compound 119, N-[4-(2-Furyl)-5-(pyridin-2-ylcarbonyl)thiazol-2-yl]-1,4-benzodioxane-2-carboxamide], the melting point was 103 to 104 °C.
